What all share (experiment): Competition binding bead assay with immobilized compound 6 in cell lysate, iTRAQ LC-MS/MS quantitation
One experiment addresses T1, SETD7 (Homo sapiens, UniProt Q8WTS6).
T1 construct: endogenous in cells; host or cells: Jurkat (ATCC TIB-152) and Ramos (ATCC CRL-1596) cells, mixed lysate
T1 sequence (Q8WTS6 1-366): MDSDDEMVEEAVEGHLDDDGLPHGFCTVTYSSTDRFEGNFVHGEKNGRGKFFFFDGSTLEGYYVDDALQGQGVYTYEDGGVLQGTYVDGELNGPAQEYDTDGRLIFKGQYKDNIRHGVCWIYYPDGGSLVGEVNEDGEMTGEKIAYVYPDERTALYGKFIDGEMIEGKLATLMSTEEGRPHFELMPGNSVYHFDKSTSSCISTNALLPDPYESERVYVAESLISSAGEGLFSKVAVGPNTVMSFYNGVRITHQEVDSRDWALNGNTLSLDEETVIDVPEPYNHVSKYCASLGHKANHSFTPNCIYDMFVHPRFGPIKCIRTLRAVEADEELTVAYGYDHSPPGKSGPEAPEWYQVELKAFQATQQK
The note with it: SETD7 (IPI00028366.2); 200 μM free compound 6; mixed Jurkat and Ramos cell lysates; versus DMSO solvent control. The method, then:
(§1) To the first aliquot of cell lysate 200 μM of the free compound 6 was added and allowed to bind to proteins in the lysate. Then the affinity matrix with the immobilized compound (Example 1) was added to capture proteins that were not interacting with the previously added free compound. Beads were separated from the lysate and bead bound proteins were eluted in SDS sample buffer and subsequently separated by SDS-Polyacrylamide gel electrophoresis. Suitable gel bands were cut out and subjected to in-gel proteolytic digestion with trypsin. The second lysate aliquot was processed identically, however no free compound was added (DMSO solvent control). Peptides originating from samples 1 and 2 were labeled with iTRAQ reagents (iTRAQ 114 and iTRAQ 116) and the combined samples were analyzed with a nano-flow liquid chromatography system coupled online to a tandem mass spectrometer (LC-MS/MS) experiment followed by iTRAQ reporter ion quantification in the MS/MS spectra (Ross et al., 2004. Mol. Cell. Proteomics 3(12):1154-1169). Further experimental protocols can be found in WO2006/134056 and a previous publication (Bantscheff et al., 2007. Nature Biotechnology 25, 1035-1044).
(§2) The identified methyltransferases are shown in Table 5 including the percent competition values for the sample to which 200 μM free compound had been added. […]

Another experiment has as its target T2, SMYD5 (Homo sapiens, UniProt Q6GMV2).
T2 construct: endogenous in cells; host or cells: Jurkat (ATCC TIB-152) and Ramos (ATCC CRL-1596) cells, mixed lysate
T2 sequence (Q6GMV2 1-418): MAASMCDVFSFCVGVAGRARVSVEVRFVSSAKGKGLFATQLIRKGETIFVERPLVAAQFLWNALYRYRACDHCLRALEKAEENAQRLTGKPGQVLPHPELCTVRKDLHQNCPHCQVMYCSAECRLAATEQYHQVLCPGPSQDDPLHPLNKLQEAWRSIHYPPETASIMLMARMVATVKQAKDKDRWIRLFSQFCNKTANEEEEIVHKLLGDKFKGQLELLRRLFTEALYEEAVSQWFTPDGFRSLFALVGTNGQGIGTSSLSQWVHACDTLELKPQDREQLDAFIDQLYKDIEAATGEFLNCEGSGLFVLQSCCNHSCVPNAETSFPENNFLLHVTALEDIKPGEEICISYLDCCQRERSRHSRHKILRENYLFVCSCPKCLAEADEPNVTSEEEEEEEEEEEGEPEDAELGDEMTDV
Conditions: SMYD5 (IPI00013789.5); 200 μM free compound 6; mixed Jurkat and Ramos cell lysates; versus DMSO solvent control. How it is done: as §1, §2

The next experiment relates to DPH5. Also noted: species or system human. The note with it: 200 μM free compound 6, mixed Jurkat and Ramos cell lysates, versus DMSO solvent control. The method, then:
as §1, §2

`NCCCNc1nc(N)c2ncn([C@@H]3O[C@H](CSCC[C@H](N)C(=O)O)[C@@H](O)[C@H]3O)c2n1` [Compound 6, (S)-2-amino-4-((((2S,3S,4R,5R)-5-(6-amino-2-((3-aminopropyl)amino)-9H-purin-9-yl)-3,4-dihydroxytetrahydrofuran-2-yl)methyl)thio)butanoic acid]: the “% Competition” value on SETD7 was 94.1%; on SMYD5, 95.9%; with DPH5 it was 50.0%.

The record behind these values is patent US20130210664A1, “Methods for the Identification of Methyltransferase Interacting Molecules and for the Purification of Methyltransferase Proteins” (Cellzome AG, priority 2010, published 2013).
